Measurements reported in publication PMC10728248, “A Novel Near-Infrared Fluorescence Probe THK-565 Enables In Vivo Detection of Amyloid Deposits in Alzheimer’s Disease Mouse Model” (Molecular Imaging and Biology, 2023).

Molecular target: T1, amyloid-β (Aβ1-40) fibrils (Homo sapiens, UniProt P05067)
T1 construct: gene APP; Aβ1-40, aggregated (fibrils)
Experiment: fluorescence saturation binding (ΔF at […] nm, fibrils vs soluble Aβ)

T1 sequence (P05067 672-711): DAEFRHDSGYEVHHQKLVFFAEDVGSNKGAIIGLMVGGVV

With `Cc1ccc2c(c1)C(C)(C)C1(/C=C/C=C/c3ccc(N(C)C)cc3)NC(=O)CCN21` (stereo not shown) [THK-565, 10a-[(1E,3E)-4-(4-dimethylamino-phenyl)-buta-1,3-dienyl]-8,10,10-trimethyl-3,4,10,10a-tetrahydro-1H-pyrimido[1,2-a]indol-2-one] the Kd was 156 nM.
